From US20230146455A1, “TREATMENT OF INFLAMMATORY DISEASES WITH PEPTIDES AND PHARMACEUTICAL COMPOSITIONS” (Yuyu Pharma, Inc., priority 2020, published 2023)
Where a SMILES comes first, the peptide text is derived from it. [ ]: non-standard residue; d: D form. Hyp = O=C(O)[C@@H]1C[C@@H](O)CN1

Assay: PBMC cell counts (total, live, viability; trypan blue, Countess) with and without LPS and test articles (Example 9)
Type: cell-based, human
Settings: human; for viability at 24 h, 0.001 µM: PBMC + LPS(5 ug/ml) + compound 0.001 uM
Summary of the method: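 Human PBMCs were pretreated 2 h with test articles (0.001–100 uM) or 0.5% DMSO vehicle, then given LPS at 5 ug/ml or no LPS, in triplicate. After 24 hr, total and live cells and viability were counted by 1:1 trypan blue staining on an automated counter.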

[1] = PBMCs, PBMC + LPS(5 ug/ml) + compound 0.01 uM, 24 hr
[2] = PBMCs, PBMC + LPS(5 ug/ml) + compound 0.1 uM, 24 hr
[3] = PBMCs, PBMC + LPS(5 ug/ml) + compound 1 uM, 24 hr
[4] = PBMCs, PBMC + LPS(5 ug/ml) + compound 10 uM, 24 hr
[5] = PBMCs, PBMC + LPS(5 ug/ml) + compound 100 uM, 24 hr

CC(C)C[C@H](NC(=O)CNC(=O)[C@H](CC(C)C)NC(=O)[C@H](CCC(N)=O)NC(=O)CNC(=O)[C@@H]1C[C@@H](O)CN1)C(=O)N[C@@H](C)C(=O)NCC(=O)N1CCC[C@H]1C(=O)N[C@@H](CCCCN)C(=O)O [YDE-011] (H-[Hyp]GQLGLAGPK-OH)
viability at 24 h, 0.001 µM (PBMCs, 24 hr): 85 ± 5.1%
viability at 24 h, 0.01 µM [1]: 81 ± 1.2%
viability at 24 h, 0.1 µM [2]: 82 ± 4%
viability at 24 h, 1 µM [3]: 79.7 ± 5.8%
viability at 24 h, 10 µM [4]: 88.3 ± 1.5%
viability at 24 h, 100 µM [5]: 74.3 ± 4.1%
viability at 24 h, 0.01 µM (human PBMCs, PBMC + LPS(5 ug/ml), test article 0.01 uM, single replicates): 83%

CC(C)C[C@H](NC(=O)[C@H](CCC(N)=O)NC(=O)CNC(=O)[C@@H]1C[C@@H](O)CN1)C(=O)NCC(=O)O [YDE-043] (H-[Hyp]GQLG-OH; N-terminus and C-terminus assumed)
viability at 24 h, 0.001 µM (PBMCs, 24 hr): 79.3 ± 1.5%
viability at 24 h, 0.01 µM [1]: 77.3 ± 6.9%
viability at 24 h, 0.1 µM [2]: 82 ± 4%
viability at 24 h, 1 µM [3]: 78 ± 5%
viability at 24 h, 10 µM [4]: 83.3 ± 3.3%
viability at 24 h, 100 µM [5]: 84.5 ± 4.5%

CC(C)C[C@H](NC(=O)CNC(=O)[C@H](CC(=O)O)NC(=O)[C@H](CCC(N)=O)NC(=O)CNC(=O)[C@@H]1C[C@@H](O)CN1)C(=O)N[C@@H](C)C(=O)NCC(=O)N1CCC[C@H]1C(=O)N[C@@H](CCCCN)C(=O)O [YY-101] (H-[Hyp]GQDGLAGPK-OH; N-terminus and C-terminus assumed)
viability at 24 h, 0.001 µM (PBMCs, 24 hr): 84.3 ± 2.6%
viability at 24 h, 0.01 µM [1]: 77.3 ± 5%
viability at 24 h, 0.1 µM [2]: 75.7 ± 4.7%
viability at 24 h, 1 µM [3]: 66.7 ± 5.8%
viability at 24 h, 10 µM [4]: 73.7 ± 4.8%
viability at 24 h, 100 µM [5]: 76.7 ± 5.2%
viability at 24 h, 0.01 µM (PBMCs, PBMC + compound 0.01 uM, no LPS, 24 hr): 85 ± 2%
viability at 24 h, 0.1 µM (PBMCs, PBMC + compound 0.1 uM, no LPS, 24 hr): 84%
viability at 24 h, 1 µM (PBMCs, PBMC + compound 1 uM, no LPS, 24 hr): 89.5 ± 2.5%
viability at 24 h, 10 µM (PBMCs, PBMC + compound 10 uM, no LPS, 24 hr): 86 ± 1%
viability at 24 h, 100 µM (PBMCs, PBMC + compound 100 uM, no LPS, 24 hr): 86.5 ± 1.5%
